Structures can show the parent of a compound that is named as a salt.
Target: T1, cardiac Na+ channel, hNav1.5 (Homo sapiens, UniProt Q14524)
T1 construct: expressed in transfected cells; host or cells: Chinese hamster ovary K1 (CHO) cells
Experiment: hNav1.5 IonWorks electrophysiology in CHO cells
Format: cell-based
Details: IonWorks Quattro, 3 Hz, room temperature
Description: The hNav1.5-expressing Chinese hamster ovary K1 (CHO) cells used has been described previously (Persson, F. et al, (2005), Journal of Cardiovascular Electrophysiology, 16, 329-341). These cells were grown to semi-confluence at 37° C. in a humidified environment (5% CO2) in F-12 Ham medium containing Glutamax™, 10% foetal calf serum and 1 mg/ml G418 (all Invitrogen). Prior to use, the monolayer was washed using a pre-warmed (37° C.) 3 ml aliquot of Versene 1:5000 (Invitrogen). After aspiration of this solution the flask was incubated at 37° C. with a further 3 ml of Versene 1:5000 for a period of 6 min. […] A 0.5 ml aliquot of cell suspension was removed and the number of viable cells (based on trypan blue exclusion) was determined in an automated cell counter (Cedex; Innovatis) so that the cell re-suspension volume could be adjusted with PBS to give the desired final cell concentration. […]
Pre- and post-scan hNav1.5 current amplitude was measured from the leak-subtracted traces by the IonWorks™ software by taking the average current during the end of the depolarising pulse to 0 mV (baseline current) and subtracting this from the peak inward current. […]

T1 sequence (Q14524 whole entry): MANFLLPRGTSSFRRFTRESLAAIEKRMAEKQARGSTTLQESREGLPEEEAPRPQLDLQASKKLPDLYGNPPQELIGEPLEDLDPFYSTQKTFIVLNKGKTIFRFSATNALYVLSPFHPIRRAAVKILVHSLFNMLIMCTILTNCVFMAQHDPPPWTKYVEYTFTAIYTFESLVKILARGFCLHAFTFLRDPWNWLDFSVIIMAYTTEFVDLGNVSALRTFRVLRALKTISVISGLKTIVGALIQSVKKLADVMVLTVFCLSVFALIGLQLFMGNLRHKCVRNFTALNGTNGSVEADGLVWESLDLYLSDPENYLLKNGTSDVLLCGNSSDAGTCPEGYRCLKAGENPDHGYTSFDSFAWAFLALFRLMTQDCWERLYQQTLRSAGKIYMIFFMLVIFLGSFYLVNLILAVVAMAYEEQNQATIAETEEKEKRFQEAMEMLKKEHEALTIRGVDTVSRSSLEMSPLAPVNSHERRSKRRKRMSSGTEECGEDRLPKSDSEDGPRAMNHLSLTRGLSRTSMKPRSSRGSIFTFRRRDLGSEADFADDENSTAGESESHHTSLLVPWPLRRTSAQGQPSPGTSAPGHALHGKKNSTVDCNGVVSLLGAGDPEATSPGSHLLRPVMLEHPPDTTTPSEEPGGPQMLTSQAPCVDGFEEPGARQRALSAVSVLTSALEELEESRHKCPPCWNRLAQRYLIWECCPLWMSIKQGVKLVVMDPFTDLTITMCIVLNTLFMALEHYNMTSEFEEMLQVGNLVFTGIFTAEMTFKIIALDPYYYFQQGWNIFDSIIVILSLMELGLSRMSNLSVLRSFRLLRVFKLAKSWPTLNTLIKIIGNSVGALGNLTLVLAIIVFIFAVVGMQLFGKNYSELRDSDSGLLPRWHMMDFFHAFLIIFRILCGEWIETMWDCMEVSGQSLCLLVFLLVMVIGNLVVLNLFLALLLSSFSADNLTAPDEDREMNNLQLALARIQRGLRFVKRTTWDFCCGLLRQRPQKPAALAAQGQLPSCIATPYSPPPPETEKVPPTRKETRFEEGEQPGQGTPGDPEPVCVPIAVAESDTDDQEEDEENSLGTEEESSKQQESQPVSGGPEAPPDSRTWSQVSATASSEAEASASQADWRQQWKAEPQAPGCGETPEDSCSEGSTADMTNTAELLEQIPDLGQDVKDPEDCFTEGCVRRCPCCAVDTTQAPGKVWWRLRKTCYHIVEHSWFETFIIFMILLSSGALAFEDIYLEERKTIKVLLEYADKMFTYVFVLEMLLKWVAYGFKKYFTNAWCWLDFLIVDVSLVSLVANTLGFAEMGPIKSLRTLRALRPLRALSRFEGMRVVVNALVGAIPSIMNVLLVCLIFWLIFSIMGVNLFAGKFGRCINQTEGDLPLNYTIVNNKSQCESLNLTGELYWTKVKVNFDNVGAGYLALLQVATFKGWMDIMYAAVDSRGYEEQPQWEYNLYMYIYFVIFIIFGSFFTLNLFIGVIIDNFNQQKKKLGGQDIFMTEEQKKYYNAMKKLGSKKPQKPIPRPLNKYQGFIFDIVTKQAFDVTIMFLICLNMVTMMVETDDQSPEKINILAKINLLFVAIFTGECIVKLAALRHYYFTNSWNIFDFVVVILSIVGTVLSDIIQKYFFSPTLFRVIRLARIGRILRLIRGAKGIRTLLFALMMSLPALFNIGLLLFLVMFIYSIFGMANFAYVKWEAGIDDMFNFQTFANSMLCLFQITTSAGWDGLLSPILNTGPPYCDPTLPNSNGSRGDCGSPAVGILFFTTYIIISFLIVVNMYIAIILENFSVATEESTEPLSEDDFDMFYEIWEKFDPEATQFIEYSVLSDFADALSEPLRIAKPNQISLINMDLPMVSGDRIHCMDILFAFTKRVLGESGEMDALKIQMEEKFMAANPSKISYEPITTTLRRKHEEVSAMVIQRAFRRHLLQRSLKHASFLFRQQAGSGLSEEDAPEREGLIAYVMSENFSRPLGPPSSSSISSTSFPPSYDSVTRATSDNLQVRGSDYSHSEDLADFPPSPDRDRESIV

COCCCNCCCc1ccc(-c2cnc(N)c(C(=O)Nc3cccnc3)n2)cc1 [Example 1, 3-Amino-6-(4-{3-[(3-methoxypropyl)amino]propyl}phenyl)-N-pyridin-3-ylpyrazine-2-carboxamide tri-hydrochloride]
IC50: 21.2 µM
